Where a name gives a salt, the structure may show the parent alone. Read-outs that look alike come from different tables or passages of the source.
Columns and labels:
[1] = target: T1, Abl T315I (Homo sapiens, UniProt P00519, T315I); experiment: Abl T315I kinase assay; assay type: biochemical
T1 construct: purchased Upstate 14-522
Procedure: • 1. 5× Reaction Buffer: 40 mM MOPS, pH 7.0, 1 mM EDTA. • 2. Enzyme Dilution Buffer (EDB): 20 mM MOPS, pH 7.0, 1 mM EDTA, 0.01% Brij-35, 5% glycerol, 0.1% β-mercaptoethanol, 1 mg/ml BSA. • 3. […] Use 2.5 μl per assay point. • 4. […] Use 2.5 μl per assay point for a final assay concentration of 50 μM per assay point. • 5. [γ-^32P]ATP: Stock 1 mCi/100 μl (3000 Ci/mmol, obtained from PerkinElmer, Cat. # BLU002A). Make 10 μl aliquots (100 μCi/vial).
• 1. Add 5 μl of 5× Reaction Buffer per assay. • 2. Add 2.5 μl of Abltide (50 μM). • 3. […] Add 5 μl sterile, distilled water. • 5. Add 10 μl of the diluted [γ-^32P]ATP solution. • 6. Incubate for 10 minutes at 30° C. • 7. Transfer a 20 μl aliquot onto the center of a 2 cm×2 cm P81 paper. • 8. […] Wash the assay squares once for 5 minutes with acetone. • 10. Transfer the assay squares to vial and add 5 ml scintillation cocktail. • 11. Read in scintillation counter. Compare cpm of enzyme samples to cpm of control samples that contain background control.

[2] = test system: 1A9-PTX10; experiment: SRB cytotoxicity, tubulin mutated paclitaxel-resistant cells; assay type: cell-based, human; details: for IC50: Homo sapiens, 1A9/ptx-10, 72 h, SRB; for RR (relative resistance) 1A9-PTX10 vs 1A9: ratio of mean IC50 resistant/sensitive
Procedure: In these experiments, the P-glycoprotein expressing NCI-Adr resistant subline (Vickers et al., 1989. Mol Endocrinology 3 (1):157-164) was used. […] Briefly, cells were plated in 96 well dishes 24 hours prior to compound addition. Where noted, they were exposed to verapamil for 4 hours prior to compound addition and then throughout the treatment period (72 hours). The assay was terminated with the addition of cold TCA to a final concentration of 10% and the plates were incubated for one hour at 4° C. The plates were then washed 5 times with water and 100 μl of a Sulforhodamine B solution (4%) was added to each well. The plate was then incubated for 10 minutes at room temperature before removal of unbound dye by washing with 1% acetic acid.
The tubulin mutated, paclitaxel-resistant human ovarian carcinoma cell line 1A9-PTX10 and its parental paclitaxel-sensitive cell line 1A9 were derived from the A2780 human ovarian carcinoma cell line (J Biol Chem (1997) 272, 17118-17124).

[3] = target: T2, JNK2α2 (Homo sapiens, UniProt P45984); experiment: JNK2α2 kinase assay; assay type: biochemical
T2 construct: purchased Upstate 14-329
Procedure: • 1. 10× Reaction Buffer: 500 mM Tris-HCl, pH 7.5, 1 mM EGTA, 1% 2-mercaptoethanol. • 2. ATF2 (amino acids 19-69) (Catalog #12-367): Prepare a 30 μM stock. Use 2.5 μl per assay point for a final concentration of 3 μM per assay. • 3. JNK2α2/SAPK1a, active: Dilute to 4-40 ng/μl with 1× Reaction Buffer containing 0.03% Brij-35. Use 2.5 μl per assay point. • 4. […] [γ-^32P]ATP: Stock 1 mCi/100 μl (3000 Ci/mmol, obtained from PerkinElmer, Catalog #BLU002A). Make 10 μl aliquots (100 μCi/vial). Before starting the assay, dilute the Magnesium/ATP Cocktail 1:1 with sterile, distilled water. Then dilute an aliquot of [γ-^32P]ATP to 1 μCi/μl with 90 μl of the diluted Magnesium/ATP Cocktail. […]
• 1. Add 2.5 μl of 10× Reaction Buffer to a microcentrifuge tube. • 2. Add 2.5 μl […] of ATF2 (amino acids 19-69). • 3. Add 2.5 μl (10-100 ng) of JNK2α2/SAPK1a, active. • 4. Add 7.5 μl of sterile, distilled water. • 5. Add 10 μl of the diluted [γ-^32P]ATP solution. • 6. Incubate with agitation for 10 minutes at 30° C. • 7. Transfer a 20 μl aliquot onto the center of a 2 cm×2 cm P81 paper square (Catalog #20-134). • 8. Wash the paper squares three times with 0.75% phosphoric acid for 5 minutes. • 9. Wash the paper squares once for 5 minutes with acetone. • 10. Transfer the paper squares to a scintillation vial and add 5 ml scintillation cocktail. • 11. Read in scintillation counter. Compare the cpm of enzyme samples to the cpm of control samples that contain no enzyme (background control).

[4] = test system: adriamycin resistant cell line (ADR-res); experiment: NCI panel, adriamycin resistant cell line, SRB assay; assay type: cell-based; details: Homo sapiens, 48 h
Text: The evaluation of compounds at the National Cancer Institute in their panel of 60 cell lines provides a wealth of information regarding efficacy in a wide range of tumor types and genetic backgrounds. Included within this panel are cell lines derived from leukemia, melanoma and cancers of the lung, colon, brain, ovary, breast, prostate and kidney. Use of this panel provides a measure of the efficacy of compounds in cells with alterations in many genes that are associated with neoplastic transformation including p53 and Her2/Neu as well as those involved in metabolism and those which confer multi-drug resistance. The data generated in these cell lines with the protocol described below can be used to evaluate the activity of compounds.
Cells were grown in RPMI-1640 10% FCS and plated in 96 well micro-titer plates at densities ranging from 5,000 to 40,000 cells/well. The plates were incubated for 24 hours at 37° C., 5% CO2 for 24 hours. Media containing twice the desired final concentration of the compound (5 doses spanning 4 logs) was prepared and 100 μl was added to each well containing 100 μl media plus cells to yield the desired final concentration. The plates were then incubated for an additional 48 hours.
The effect of the compound on cellular viability was determined with the Sulforhodamine B (SRB) assay, which measures total protein. Cells were fixed with cold TCA to a final concentration of 10% and incubated at 4° C. for 60 minutes. The supernatant was discarded and the plates were washed five times with water and air-dried. SRB solution at […] in 1% acetic acid was added to each well and the plates were incubated for 10 minutes at room temperature. The plates were washed five times with 1% acetic acid and air-dried. The bound stain was solubilized with 10 mM trizma base and the absorbance was read on a plate reader at […].

[5] = read-out: Inhibition (IC50), Table II (accession U07563, no symbol)
[6] = kinase panel, 10 μM ATP, read-out: JNK2α2 IC50
[7] = read-out: MAPK9 Inhibition (IC50)

T2 sequence (P45984 whole entry): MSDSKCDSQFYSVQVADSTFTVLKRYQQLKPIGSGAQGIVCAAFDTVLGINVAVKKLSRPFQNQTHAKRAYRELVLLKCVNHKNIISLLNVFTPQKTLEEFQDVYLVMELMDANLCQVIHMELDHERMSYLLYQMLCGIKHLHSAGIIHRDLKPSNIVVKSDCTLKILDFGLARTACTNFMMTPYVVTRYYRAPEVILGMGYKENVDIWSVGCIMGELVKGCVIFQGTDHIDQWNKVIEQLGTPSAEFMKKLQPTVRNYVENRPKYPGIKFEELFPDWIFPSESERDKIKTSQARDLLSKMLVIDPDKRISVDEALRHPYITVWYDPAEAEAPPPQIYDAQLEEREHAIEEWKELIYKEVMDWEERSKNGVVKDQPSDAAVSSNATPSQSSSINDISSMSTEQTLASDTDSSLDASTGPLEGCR

Row | SMILES | IC50 ([1]; read-out: Abl T315I IC50) | IC50 [1, 5] | IC50 [2] | RR (relative resistance) 1A9-PTX10 vs 1A9 [2] | IC50 [3, 6] | IC50 [3, 7] | IC50 [4]
1 | CC(C)N1CCN(C(=O)COc2ccc(-c3n[nH]c4c3C(=O)c3c(NC(=O)NN5CCOCC5)cccc3-4)cc2)CC1 [Compound A37] | 87 nM | < 100 nM | 44.3 nM | 3.3 | 10 to 100 nM | < 50 nM | < 100000 nM
2 | COCCN1CCN(Cc2ccc(-c3n[nH]c4c3C(=O)c3c(NC(=O)NN5CCOCC5)cccc3-4)cc2)CC1 [Compound B16, N-[3-(4-{[4-(2-methoxyethyl)piperazinyl]methyl}phenyl)-4-oxoindeno[2,3-d]pyrazol-5-yl](morpholin-4-ylamino)carboxamide dihydrochloride] | ~100 nM | < 100 nM | 25 nM | 2.3 | < 100 nM | < 100 nM | < 10000 nM
